Source: patent US11458102B2, “Acetaminophen preparation, and method for producing same” (NIPPON ZOKI PHARMACEUTICAL CO., LTD., priority 2017, dated 2022)
Each block holds one compound with its values, some of them ahead of it.

Assay: Particle size distribution of acetaminophen drug substance by laser-diffraction method (dry measurement)
Type: physicochemical
Description: The acetaminophen to be used in the present invention (also referred to as “the present acetaminophen”) has a particle size distribution in which d10 is generally 5 to 200 μm, preferably 10 to 150 μm, more preferably 12 to 100 μm, and d90 is generally 200 to 1800 μm, preferably 250 to 1600 μm, more preferably 280 to 1450 μm. Although there are some differences in the particle size distribution among lots, the unpulverized acetaminophen generally has the above-specified particle size distribution. In contrast, although there are some differences in the particle size distribution of a pulverized product of acetaminophen among the manufacturers of the drug substance and production lots, a pulverized product of acetaminophen generally has a particle size distribution in which the d10 is 3 to 10 μm and d90 is 100 to 250 μm, and therefore the particle diameters of the pulverized product of acetaminophen are smaller compared with those of the present acetaminophen. In the present invention, the particle size distribution is determined by a volume distribution evaluation employing a laser-diffraction method (Measuring Instrument: e.g., Mastersizer 2000 or Mastersizer 3000 (Malvern), Dispersion compression air pressure: 2 to 4 Bar), and the terms “d10”, “d50”, and “d90” refer to particle diameters at a volume cumulative 10% point, a volume cumulative 50% point, and a volume cumulative 90% point, respectively, as observed from the smaller diameter side in the particle size distribution. “a laser-diffraction method” is also referred to as “a laser-diffraction scattering method” Each of unpulverized products of acetaminophen (lots A to P) and pulverized products of acetaminophen (lots a to b) was subjected to a particle size distribution measurement using a particle measurement method (dry measurement) by a laser-diffraction method. As an instrument, a dry automated dispersion unit microtray (Mastersizer 2000 or Mastersizer 3000, Malvern) was used, the dispersion compression air pressure was 2 Bar or 4 Bar, and the analysis of particle size distribution was performed by a volume conversion method. […] The range of the particle size distribution in the present invention is determined with taking the above-mentioned finding into consideration. The lots of the acetaminophen drug substances shown in Table 1 are different from each other with respect to the conditions for manufacturing thereof, such as temperature and humidity. […] For example, the results of (1) to (2) of lot E and (1) to (12) of lot H in Table 1 are the results for different measurement samples of the same lots. As apparent from the results, the measurement results may vary depending on the zones of sampling even when the samples are of the same lot or depending on the types of measurement instrument to be used even when the measurement is carried out by the same method.

[1] = Mastersizer 2000, laser diffraction, volume distribution, dry, listed as A
[2] = Mastersizer 2000, laser diffraction, volume distribution, dry, listed as a
[3] = Mastersizer 2000, laser diffraction, volume distribution, dry, listed as H
[4] = Mastersizer 2000, laser diffraction, volume distribution, dry, listed as O
[5] = Mastersizer 2000, laser diffraction, volume distribution, dry, listed as P
[6] = Mastersizer 2000, laser diffraction, volume distribution, dry, listed as N
[7] = Mastersizer 2000, laser diffraction, volume distribution, dry, listed as I
[8] = Mastersizer 2000, laser diffraction, volume distribution, dry, listed as B
[9] = Mastersizer 2000, laser diffraction, volume distribution, dry, listed as b
[10] = Mastersizer 2000, laser diffraction, volume distribution, dry, listed as J
[11] = Mastersizer 2000, laser diffraction, volume distribution, dry, listed as L
[12] = Mastersizer 2000, laser diffraction, volume distribution, dry, listed as D
[13] = measurement instrument printed as dash, listed as d
[14] = Mastersizer 2000, laser diffraction, volume distribution, dry, listed as G
[15] = Mastersizer 2000, laser diffraction, volume distribution, dry, listed as C
[16] = measurement instrument printed as dash, listed as c
[17] = Mastersizer 2000, laser diffraction, volume distribution, dry, listed as E
[18] = Mastersizer 3000, laser diffraction, volume distribution, dry
[19] = Mastersizer 2000, laser diffraction, volume distribution, dry, listed as F
[20] = Mastersizer 2000, laser diffraction, volume distribution, dry, listed as M
[21] = Mastersizer 2000, laser diffraction, volume distribution, dry, listed as K

Compound: CC(=O)Nc1ccc(O)cc1 [Lot A, acetaminophen]
Particle Diameters D10 [1]: 20 μm
Particle Diameters D90 [1]: 320 μm
Particle Diameters D10 [2]: 4 μm
Particle Diameters D90 [2]: 166 μm

Compound: CC(=O)Nc1ccc(O)cc1 [Lot H, acetaminophen]
Particle Diameters D10 [3]: 23 μm
Particle Diameters D90 [3]: 429 μm

Compound: CC(=O)Nc1ccc(O)cc1 [Lot O, acetaminophen]
Particle Diameters D10 [4]: 24 μm
Particle Diameters D90 [4]: 387 μm

Compound: CC(=O)Nc1ccc(O)cc1 [Lot P, acetaminophen]
Particle Diameters D10 [5]: 20 μm
Particle Diameters D90 [5]: 424 μm

Compound: CC(=O)Nc1ccc(O)cc1 [Lot N, acetaminophen]
Particle Diameters D10 [6]: 26 μm
Particle Diameters D90 [6]: 439 μm

Compound: CC(=O)Nc1ccc(O)cc1 [Lot I, acetaminophen]
Particle Diameters D10 [7]: 22 μm
Particle Diameters D90 [7]: 433 μm

Compound: CC(=O)Nc1ccc(O)cc1 [Lot B, acetaminophen]
Particle Diameters D10 [8]: 30 μm
Particle Diameters D90 [8]: 551 μm
Particle Diameters D10 [9]: 4 μm
Particle Diameters D90 [9]: 144 μm

Compound: CC(=O)Nc1ccc(O)cc1 [Lot J, acetaminophen]
Particle Diameters D10 [10]: 27 μm
Particle Diameters D90 [10]: 404 μm

Compound: CC(=O)Nc1ccc(O)cc1 [Lot L, acetaminophen]
Particle Diameters D10 [11]: 30 μm
Particle Diameters D90 [11]: 486 μm

Compound: CC(=O)Nc1ccc(O)cc1 [Lot D, acetaminophen]
Particle Diameters D10 [12]: 20 μm
Particle Diameters D90 [12]: 464 μm
Particle Diameters D10 [13]: 10 μm
Particle Diameters D90 [13]: 192 μm

Compound: CC(=O)Nc1ccc(O)cc1 [Lot G, acetaminophen]
Particle Diameters D10 [14]: 24 μm
Particle Diameters D90 [14]: 432 μm

Other lines, results leading:

Particle Diameters D10 [15]: 26 μm
Particle Diameters D90 [15]: 419 μm
Particle Diameters D10 [16]: 6 μm
Particle Diameters D90 [16]: 104 μm
Compound: CC(=O)Nc1ccc(O)cc1 [Lot C, acetaminophen]

Particle Diameters D10 [17]: 16 μm
Particle Diameters D90 [17]: 361 μm
Particle Diameters D10 [18]: 66 μm
Particle Diameters D90 [18]: 1290 μm
Compound: CC(=O)Nc1ccc(O)cc1 [Lot E, acetaminophen]

Particle Diameters D10 [19]: 31 μm
Particle Diameters D90 [19]: 488 μm
Compound: CC(=O)Nc1ccc(O)cc1 [Lot F, acetaminophen]

Particle Diameters D10 [20]: 27 μm
Particle Diameters D90 [20]: 419 μm
Compound: CC(=O)Nc1ccc(O)cc1 [Lot M, acetaminophen]

Particle Diameters D10 [21]: 22 μm
Particle Diameters D90 [21]: 442 μm
Compound: CC(=O)Nc1ccc(O)cc1 [Lot K, acetaminophen]
